Measurements as given in paper PMC5733478, “A Non-imaging High Throughput Approach to Chemical Library Screening at the Unmodified Adenosine-A3 Receptor in Living Cells” (Frontiers in Pharmacology, 2017).
Where a name gives a salt, the structure may show the parent alone.

Biological target: T1, human A1AR (Homo sapiens, UniProt P30542)
T1 construct: expressed in transfected cells
T1 sequence (P30542 1-326): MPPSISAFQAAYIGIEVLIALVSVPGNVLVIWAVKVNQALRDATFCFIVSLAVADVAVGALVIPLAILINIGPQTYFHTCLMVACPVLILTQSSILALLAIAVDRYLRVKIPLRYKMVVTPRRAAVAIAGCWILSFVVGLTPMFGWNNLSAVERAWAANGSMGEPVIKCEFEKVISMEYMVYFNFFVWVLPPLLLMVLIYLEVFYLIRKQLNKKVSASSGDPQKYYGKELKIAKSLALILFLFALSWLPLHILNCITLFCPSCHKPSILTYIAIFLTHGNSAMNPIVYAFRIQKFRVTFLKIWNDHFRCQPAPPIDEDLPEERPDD
Assay: HTS (PHERAstar FS) fluorescent ligand competition binding in live CHO cells, 25 nM CA200645 tracer
Details: secondary screen of LOPAC hits, 25 nM CA200645, mean ± SEM, n=3; read-out: A1AR pKi (selected LOPAC hits) (converted)
Experimental: (§1) CHO cells stably expressing the A3AR, A1AR, β1AR or β2AR were seeded into the central 60 wells (for high content confocal analysis) or every well (high throughput analysis) of a 96-well clear-bottomed, black-walled plate (Greiner BioOne) and grown to confluency. […] Cells were incubated for 1h at 37°C/5% CO2. Buffer was then removed from each well, cells washed once in HBSS and fresh HBSS added at room temperature. Plates were then immediately subjected to high content or HTS analysis as detailed below.
(§2) High throughput analysis was performed using a PHERAstar FS plate reader (BMG Technologies). […] Optimal focal height was determined automatically and total fluorescence intensity was assessed by taking 81 reads per well.
(§3) Competition binding curves were fitted to the following equation using GraphPad Prism 5 (GraphPad Software): […]
(§4) where [L] is the concentration and KD is the equilibrium dissociation constant of the fluorescent ligand.

Work on `Oc1ccc(/C=C/c2ccc(/C=C/c3ccc(O)cc3)c(Br)c2)cc1` [K114] yielded a Ki of 0.275 µM.

Biological target: T2, human A3AR (Homo sapiens, UniProt P0DMS8)
T2 construct: expressed in transfected cells
T2 sequence (P0DMS8 1-318): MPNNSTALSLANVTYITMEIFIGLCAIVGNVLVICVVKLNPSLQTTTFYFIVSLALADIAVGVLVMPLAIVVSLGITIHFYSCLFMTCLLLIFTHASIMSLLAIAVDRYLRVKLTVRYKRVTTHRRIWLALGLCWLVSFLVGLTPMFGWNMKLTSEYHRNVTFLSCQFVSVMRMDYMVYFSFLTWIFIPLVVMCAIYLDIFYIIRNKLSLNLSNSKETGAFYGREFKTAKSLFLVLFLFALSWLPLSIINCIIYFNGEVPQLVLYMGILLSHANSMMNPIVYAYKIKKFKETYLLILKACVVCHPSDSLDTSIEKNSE
Assay: as above
Details: secondary screen of LOPAC hits, full inhibition curves, 25 nM CA200645, mean ± SEM, n=3; read-out: A3AR pKi (selected LOPAC hits) (converted)
Experimental: as §1, §2, §3, §4

Molecule `Oc1ccc(/C=C/c2ccc(/C=C/c3ccc(O)cc3)c(Br)c2)cc1` [K114] has a Ki of 0.372 µM.

Same assay, conditions: secondary screen of top ten hits, highest concentration 10 μM, affinity not determinable

With `Cn1c(=O)c(-c2c(Cl)cccc2Cl)cc2cnc(Nc3ccc(N4CCOCC4)cc3)nc21` [PD173952, reference compound] the “displacement of CA200645 binding at the A3AR in full inhibition curves” value (shortened to “displacement … in full inhibition curves”) was “only displaced the binding of CA200645 at the highest concentration tested”.
In the case of `O=C1Cc2c([nH]c3ccc(Br)cc23)-c2ccccc2N1` [kenpaullone, reference compound], the “displacement … in full inhibition curves” value is reported as “only displaced the binding of CA200645 at the highest concentration tested”.
`O=c1c(O)c(-c2ccc(O)c(O)c2)oc2cc(O)cc(O)c12` [quercetin] was tested, and the “displacement … in full inhibition curves” value was “only displaced the binding of CA200645 at the highest concentration tested”.
`CC(=O)c1c(O)c(C)c(O)c(Cc2c(O)c3c(c(C(=O)/C=C/c4ccccc4)c2O)OC(C)(C)C=C3)c1O` [rottlerin, reference compound] was tested, and the “displacement … in full inhibition curves” value was “only displaced the binding of CA200645 at the highest concentration tested”.

Biological target: T2, human A3AR
Assay: LOPAC library primary screen: single concentration (10 μM) inhibition of 25 nM CA200645 binding, PHERAstar FS
Details: not given

Point of comparison: Ro 41-0960, “% 25 nM CA200645 binding” value 98.8 ± 6.8%. Against it:
- Cn1c(=O)c(-c2c(Cl)cccc2Cl)cc2cnc(Nc3ccc(N4CCOCC4)cc3)nc21 [PD173952, reference compound] — lower, 25.6 ± 5.3%
- COC[C@H]1OC(=O)c2coc3c2[C@@]1(C)C1=C(C3=O)[C@@H]2CCC(=O)[C@@]2(C)C[C@H]1OC(C)=O [Wortmannin from Penicillium funiculosum] — within error, 82.6 ± 17.7%
- COc1cc(/C=C(\C#N)C(=O)Nc2nnc(C(F)(F)F)s2)ccc1OCc1ccc(C(F)(F)F)cc1C(F)(F)F [XCT790] — within error, 87.7 ± 9.0%
- Cc1cccc(C)c1N=C1NCCCS1 [Xylazine hydrochloride] — within error, 106.3 ± 5.8%
- Cc1cc(C(C)(C)C)cc(C)c1CC1=NCCN1 [Xylometazoline hydrochloride] — within error, 106.7 ± 10.4%
- C[C@@H](N)[C@H]1CC[C@H](C(=O)Nc2ccncc2)CC1.Cl.Cl [Y-27632 dihydrochloride] — within error, 98.6 ± 10.3%
- CCc1ccc2c(-c3cccc(Cl)c3)nc(=O)n(CC)c2n1 [YM 976] — within error, 93.5 ± 3.0%
- COC(=O)[C@@H]1[C@H]2C[C@H]3c4[nH]c5ccccc5c4CCN3C[C@@H]2CC[C@@H]1O [Yohimbine hydrochloride] — within error, 100.6 ± 0.5%
- O=C(N[C@@H](Cc1ccccc1)C(=O)CCl)OCc1ccccc1 [Z-L-Phe chloromethyl ketone] — within error, 100.8 ± 7.1%
- CC(C)N(CCC(=O)c1ccc2ccccc2c1)Cc1ccccc1.Cl [ZM 39923 hydrochloride] — within error, 115.5 ± 23.0%
- CN(C)C/C=C(/c1ccc(Br)cc1)c1cccnc1 [Zimelidine dihydrochloride] — within error, 92.5 ± 9.4%
- O=C1Cc2cc(CCN3CCN(c4nsc5ccccc45)CC3)c(Cl)cc2N1 [Ziprasidone hydrochloride monohydrate] — lower, 84.7 ± 3.4%
- NS(=O)(=O)Cc1noc2ccccc12 [Zonisamide sodium] — within error, 98.6 ± 10.8%
- O=c1nc2[nH]c3ccccc3nc-2c(=O)[nH]1 [alloxazine, reference compound] — within error, 89.0 ± 4.9%
- N=C(N)NC(CCC(=O)O)C(=O)O (stereo not drawn) [alpha-Guanidinoglutaric acid] — lower, 76.4 ± 9.5%
- CN1[C@@H](CC(=O)c2ccccc2)CCC[C@H]1C[C@H](O)c1ccccc1.Cl [alpha-Lobeline hydrochloride] — within error, 90.3 ± 6.6%
- CC(N)Cc1c[nH]c2ccc(O)cc12.O=C(O)/C=C\C(=O)O (stereo not drawn) [alpha-Methyl-5-hydroxytryptamine maleate] — within error, 115.5 ± 12.2%
- C[C@]12CC[C@@H]3c4ccc(O)cc4CC[C@H]3[C@@H]1CC[C@@H]2O [beta-Estradiol] — within error, 87.8 ± 13.4%
- CC1(C)CCC2=C(O1)c1ccccc1C(=O)C2=O [beta-Lapachone] — within error, 93.1 ± 5.0%
- Cn1c(=O)c2c(ncn2C)n(C)c1=O [caffeine, reference compound] — within error, 95.8 ± 4.7%
- NC/C=C\C(=O)O [cis-4-Aminocrotonic acid] — within error, 103.0 ± 10.1%
- OCCN1CCN(CC/C=C2/c3ccccc3Sc3ccc(C(F)(F)F)cc32)CC1 [cis-(Z)-Flupenthixol dihydrochloride] — within error, 96.5 ± 4.1%
- C#CC(N)CCC(=O)O (stereo not shown) [gamma-Acetylinic GABA] — within error, 97.6 ± 3.0%
- O=C1Cc2c([nH]c3ccc(Br)cc23)-c2ccccc2N1 [kenpaullone, reference compound] — lower, 30.6 ± 6.6%
- Cl.Cl.Oc1ccc2c3c1O[C@H]1c4[nH]c5c(c4C[C@@]4(O)[C@@H](C2)N(CC2CC2)CC[C@]314)C[C@@]1(O)[C@H]2Cc3ccc(O)c4c3[C@@]1(CCN2CC1CC1)[C@H]5O4 [nor-Binaltorphimine dihydrochloride] — within error, 96.9 ± 14.7%
- Cl.Nc1cc(Cl)c(N=C2NCCN2)c(Cl)c1 [p-Aminoclonidine hydrochloride] — within error, 89.0 ± 23.3%
- O=C1C=CC(=O)C=C1 [p-Benzoquinone] — within error, 85.9 ± 13.7%
- N[C@@H](Cc1ccc(F)cc1)C(=O)O [p-Fluoro-L-phenylalanine] — within error, 98.5 ± 8.4%
- Cl.Clc1cc(I)cc(Cl)c1NC1=NCCN1 [p-Iodoclonidine hydrochloride] — within error, 77.2 ± 42.2%
- COc1ccccc1N1CCN(CCN(C(=O)c2ccc(F)cc2)c2ccccn2)CC1.Cl.Cl [p-MPPF dihydrochloride] — within error, 117.8 ± 19.4%
- CC(=O)c1c(O)c(C)c(O)c(Cc2c(O)c3c(c(C(=O)/C=C/c4ccccc4)c2O)OC(C)(C)C=C3)c1O [rottlerin, reference compound] — lower, 22.8 ± 1.4%
- (+)-Catechin Hydrate — within error, 94.3 ± 10.9%
- (±)-Ibuprofen — within error, 91.4 ± 12.3%
- CCT007093 — lower, 68.4 ± 3.4%
- L-Methionine sulfoximine — within error, 107.1 ± 5.4%
- LY-310,762 hydrochloride — within error, 93.0 ± 7.5%
- LY-367,265 — lower, 64.8 ± 25.8%
- MDL 26,630 trihydrochloride — higher, 124.5 ± 16.5%
- PD-184161 — lower, 50.8 ± 14.3%
- Picrotoxin — within error, 96.8 ± 4.1%
- R(-)-Me5 — within error, 100.1 ± 8.0%
- Ro 8-4304 — within error, 107.2 ± 11.5%
- Ro 20-1724 — higher, 108.8 ± 2.1%
- Ro 90-7501 — lower, 72.1 ± 6.0%
- S(-)-UH-301 hydrochloride — within error, 106.6 ± 12.1%
- S-Nitroso-N-acetylpenicillamine — higher, 127.5 ± 10.1%
- trans-(±)-ACPD — within error, 83.6 ± 13.4%

Same assay, conditions: 10 μM compound, 25 nM CA200645, A3AR CHO cells

With `O=c1nc2[nH]c3ccccc3nc-2c(=O)[nH]1` [alloxazine, reference compound] the “hit in LOPAC primary screen (inhibited the binding of CA200645 by >40%)” value was “not identified as hits”.
For `CCOC(=O)c1cnc2c(cnn2CC)c1NN=C(C)C` [etazolate hydrochloride, reference compound], the “hit in LOPAC primary screen (inhibited the binding of CA200645 by >40%)” value was “identified”.

Same assay, conditions: % of control wells (1% DMSO and 25 nM CA200645); compounds at 10 µM; whole live cells expressing the A3AR; mean ± SD, three experiments in duplicate

Point of comparison: `Oc1ccc(/C=C/c2ccc(/C=C/c3ccc(O)cc3)c(Br)c2)cc1` [K114], “% 25 nM CA200645 binding” value 24.6 ± 5.8%. Against it:
- CCOC(=O)c1cnc2c(cnn2CC)c1NN=C(C)C [etazolate hydrochloride, reference compound] — higher, 46.2 ± 5.3%

Same assay, conditions: compounds tested at 10 µM; % of control wells (1% DMSO and 25 nM CA200645); whole live cells expressing the A3AR; mean ± SD, three experiments in duplicate

Point of comparison: `Nc1ncnc2c1ncn2[C@@H]1O[C@H](CO)[C@@H](O)[C@H]1O` [adenosine], “% 25 nM CA200645 binding” value 92.3 ± 7.9%. Against it:
- CCCOc1ccccc1-c1nc2nn[nH]c2c(=O)[nH]1 [Zaprinast] — higher, 109.4 ± 6.4%

Biological target: T3, β2AR (Homo sapiens, UniProt P07550)
T3 construct: expressed in transfected cells
Assay: HTS (PHERAstar FS) fluorescent ligand competition binding in live CHO cells, 10 nM BODIPY-TMR-CGP tracer
Details: 10 μM compound, 10 nM BODIPY-TMR-CGP, mean ± SEM, n=3
Experimental: as §1, §2, §3, §4

T3 sequence (P07550 whole entry): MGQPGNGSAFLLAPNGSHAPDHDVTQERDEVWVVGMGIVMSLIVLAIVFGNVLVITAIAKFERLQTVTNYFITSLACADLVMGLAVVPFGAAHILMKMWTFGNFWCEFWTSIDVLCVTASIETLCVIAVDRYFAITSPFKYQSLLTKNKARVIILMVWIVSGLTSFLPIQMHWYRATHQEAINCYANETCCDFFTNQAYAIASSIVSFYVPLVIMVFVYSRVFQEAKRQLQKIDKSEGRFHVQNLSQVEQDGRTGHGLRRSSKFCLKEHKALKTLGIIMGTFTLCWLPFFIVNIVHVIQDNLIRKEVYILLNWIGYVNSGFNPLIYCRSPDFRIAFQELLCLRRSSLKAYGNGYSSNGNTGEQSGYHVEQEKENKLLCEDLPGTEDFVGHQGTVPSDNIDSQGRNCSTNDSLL

`Oc1ccc(/C=C/c2ccc(/C=C/c3ccc(O)cc3)c(Br)c2)cc1` [K114] was tested, and the “β2AR % Total binding at 10 μM” value was 95.8 ± 5.5%.
